Assay results taken from patent US9676793B2, “Co-crystals of 5-amino-2-oxothiazolo[4,5-d]pyrimidin-3(2H)-yl-5-hydroxymethyl tetrahydrofuran-3-yl acetate and methods for preparing and using the same” (Hoffmann-La Roche Inc., priority 2014, dated 2017).
Read-outs that look alike come from different tables or passages of the source.

Key:
[1] = system: human PBMCs; assay: Cytokine profiling of conditioned media from stimulated PBMCs; format: cell-based; conditions: no release with DMSO
Protocol: (§1) TLR-7 agonists stimulate the production cytokines and chemokines from human PBMC's. Conditioned medium was obtained by contacting cultured PBMC's with DMSO (control) or 100 μM R06871765 (drug) was contacted with HBV infected HepaRGd cells.
The anti-viral effect of conditioned medium obtained cultured PBMC's treated with R06871765 most likely is due to the release of cytokines and chemokines from PBMC's.

[2] = system: HBV; assay: Indirect inhibition of HBV replication by conditioned media from stimulated PBMCs; format: cell-based, HBV (genotype D, strain ayw)
Protocol: as §1
HBV infected HepaRGd cells were incubated with various dilutions of conditioned media collected from PBMCs isolated from healthy donors—donor 70615 (graphs A-D) and donor 77726 (graphs E, F). The PBMC's from each donor were stimulated with either DMSO (graphs A, C, E) or 100 μM R06871765 (graphs B, D, F). […] Three experiments were performed. In the first experiment (FIGS. 4A, 4B), conditioned media from PBMCs (donor 70615) was first diluted 10-fold using differentiation media, and then serially diluted in 3-fold increments prior to addition of each of the diluted conditioned medium to HBV infected HepaRGd cells. In the second experiment (FIGS. 4C, 4D), conditioned media from PBMCs (donor 70615) was first diluted 5-fold using differentiation media, and then serially diluted in 5-fold increments prior to addition to HBV infected HepaRGd cells. In the third experiment (FIGS. 4E, 4F), conditioned media from PBMCs (donor 77726) was first diluted 5-fold using differentiation media, and then serially diluted in 5-fold increments prior to addition to HBV infected HepaRGd cells. The HBV replication inhibitory activity for control and R06871765 treated cells was determined by monitoring the levels of HBV DNA and HBsAg secreted in culture medium.

[3] = system: HBV infected HepaRGd cells; assay: Cell viability by CellTiter-Glo, direct treatment; format: cell-based; conditions: for CC50: read-out: EC/CC50 (μM), Cell viability
[4] = Cell viability by CellTiter-Glo, direct treatment; format: cell-based; conditions: human; for cytotoxicity at 7 days, 0.82 μM / cytotoxicity at 7 days, 2.47 μM / cytotoxicity at 7 days, 7.41 μM / cytotoxicity at 7 days, 22.22 μM / cytotoxicity at 7 days, 66.67 μM / cytotoxicity at 7 days, 200 μM: read-out: Cell viability (% inhibition)
[5] = conditioned media of PBMCs stimulated with 100 μM
[6] = conditioned media of PBMCs stimulated with 100 μM, Feb. 28, 2013 donor 77726
[7] = conditioned media of PBMCs stimulated with 100 μM, Jan. 3, 2013 donor 70615
[8] = conditioned media of PBMCs stimulated with 100 μM, Nov. 12, 2012 donor 70615
[9] = stimulated PBMC conditioned media

Nc1nc2c(sc(=O)n2[C@@H]2O[C@H](CO)C[C@H]2O)c(=O)[nH]1 [R06871765]
release of IFN-α, IL-6, TNF-α and IP-10 from PBMCs [1]: induced release
EC50 converted fold dilution, HBV DNA secretion [2, 5]: 318 fold dilution
EC50 converted fold dilution, HBsAg secretion [2, 5]: 16 fold dilution
EC50 [log dilution], HBV DNA secretion [2, 6]: −2.1 log dilution
EC50 [log dilution], HBsAg secretion [2, 6]: −1.0 log dilution
EC50 [log dilution], HBV DNA secretion [2, 7]: −2.9 log dilution
EC50 [log dilution], HBsAg secretion [2, 7]: −1.4 log dilution
EC50 [log dilution], HBV DNA secretion [2, 8]: −2.5 log dilution
EC50 [log dilution], HBsAg secretion [2, 8]: <−1.0 log dilution
EC50 [log dilution], HBsAg secretion, Ave ± SD ([2]; conditioned media of PBMCs stimulated with 100 μM, average): −1.2 log dilution
EC50 [log dilution], HBV DNA secretion, Ave ± SD ([2]; conditioned media of PBMCs stimulated with 100 μM, average of three experiments): −2.5 ± 0.4 log dilution
average EC50 against HBV DNA [2, 9]: −2.5±0.4 log10
average EC50 against HBV surface antigen (HBsAg) secretion [2, 9]: −1.2 log10
CC50 ([3]; EXP ID 10/15/2012 AL): > 200 µM
CC50 ([3]; EXP ID 10/15/2012 VL): > 200 µM
maximum reduction in viability ([3]; highest concentration (200 μM)): about 17%
cytotoxicity at 7 days, 0.82 μM ([4]; EXP ID 10/15/2012 AL): -2.58%
cytotoxicity at 7 days, 0.82 μM ([4]; EXP ID 10/15/2012 VL): 3.23%
cytotoxicity at 7 days, 2.47 μM ([4]; EXP ID 10/15/2012 AL): -2.57%
cytotoxicity at 7 days, 2.47 μM ([4]; EXP ID 10/15/2012 VL): 0.54%
cytotoxicity at 7 days, 7.41 μM ([4]; EXP ID 10/15/2012 AL): -2.85%
cytotoxicity at 7 days, 7.41 μM ([4]; EXP ID 10/15/2012 VL): -1.5%
cytotoxicity at 7 days, 22.22 μM ([4]; EXP ID 10/15/2012 AL): -2.43%
cytotoxicity at 7 days, 22.22 μM ([4]; EXP ID 10/15/2012 VL): -1.37%
cytotoxicity at 7 days, 66.67 μM ([4]; EXP ID 10/15/2012 AL): 3.7%
cytotoxicity at 7 days, 66.67 μM ([4]; EXP ID 10/15/2012 VL): 7.34%
cytotoxicity at 7 days, 200 μM ([4]; EXP ID 10/15/2012 AL): 12.3%
cytotoxicity at 7 days, 200 μM ([4]; EXP ID 10/15/2012 VL): 22%
CC50 at 7 days ([4]; HBV infected HepaRGd cells): > 200 µM
